System: IGROV1 complex spheroids (HUVEC, MSC), viability % test/control
Experiment: Anticancer human tumor IGROV1 cell line growth inhibition [GQUAD];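 further: spheroids exposed to compounds for 7 days before readout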;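 on viability, T/C: 100% = DMSO vehicle control viability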
Details: for IC50: curve of first compound; for viability, T/C: stronger effect = lower value
How it was run: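 Tumor cells were grown as complex spheroids with HUVEC endothelial cells and mesenchymal stem cells as stroma. G-quadruplex stabilizers were combined with targeted agents over half-log dilutions from near the clinical Cmax, or from 10 microM.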

[1] = second compound 0.0316 µM, first compound 0.000999 µM
[2] = second compound 0.0316 µM, first compound 0.00316 µM
[3] = second compound 0.0316 µM, first compound 0.00999 µM
[4] = second compound 0.0316 µM, first compound 0.0316 µM
[5] = second compound 0.0316 µM, first compound 0.0999 µM
[6] = second compound 0.0316 µM, first compound 0.316 µM
[7] = second compound 0.1 µM, first compound 0.000999 µM
[8] = second compound 0.1 µM, first compound 0.00316 µM
[9] = second compound 0.1 µM, first compound 0.00999 µM
[10] = second compound 0.1 µM, first compound 0.0316 µM
[11] = second compound 0.1 µM, first compound 0.0999 µM
[12] = second compound 0.1 µM, first compound 0.316 µM
[13] = second compound 0.316 µM, first compound 0.000999 µM
[14] = second compound 0.316 µM, first compound 0.00316 µM
[15] = second compound 0.316 µM, first compound 0.00999 µM
[16] = second compound 0.316 µM, first compound 0.0316 µM
[17] = second compound 0.316 µM, first compound 0.0999 µM
[18] = second compound 0.316 µM, first compound 0.316 µM
[19] = second compound 1 µM, first compound 0.000999 µM
[20] = second compound 1 µM, first compound 0.00316 µM
[21] = second compound 1 µM, first compound 0.00999 µM
[22] = second compound 1 µM, first compound 0.0316 µM
[23] = second compound 1 µM, first compound 0.0999 µM
[24] = second compound 1 µM, first compound 0.316 µM
[25] = second compound 3.16 µM, first compound 0.000999 µM
[26] = second compound 3.16 µM, first compound 0.00316 µM
[27] = second compound 3.16 µM, first compound 0.00999 µM
[28] = second compound 3.16 µM, first compound 0.0316 µM
[29] = second compound 3.16 µM, first compound 0.0999 µM
[30] = second compound 3.16 µM, first compound 0.316 µM
[31] = second compound 10 µM, first compound 0.000999 µM
[32] = second compound 10 µM, first compound 0.00316 µM
[33] = second compound 10 µM, first compound 0.00999 µM
[34] = second compound 10 µM, first compound 0.0316 µM
[35] = second compound 10 µM, first compound 0.0999 µM
[36] = second compound 10 µM, first compound 0.316 µM

CC[C@@]1(O)C(=O)OCc2c1cc1n(c2=O)Cc2cc3c(CN(C)C)c(O)ccc3nc2-1 + Cc1cnc(CNC(=O)c2c(=O)c3ccc(N4CCCN(C)CC4)nc3n3c2sc2ccccc23)cn1
IC50 (second compound 0.0316 µM): 13.3 nM | IC50 (second compound 0.1 µM): < 0.999 nM | IC50 (second compound 0.316 µM): < 0.999 nM | IC50 (second compound 1 µM): < 0.999 nM | IC50 (second compound 3.16 µM): < 0.999 nM | IC50 (second compound 10 µM): < 0.999 nM | viability, T/C [1]: 69.8% | viability, T/C [2]: 57.8% | viability, T/C [3]: 60.4% | viability, T/C [4]: 19.8% | viability, T/C [5]: 12.4% | viability, T/C [6]: 8.43% | viability, T/C [7]: 33% | viability, T/C [8]: 34.3% | viability, T/C [9]: 31.3% | viability, T/C [10]: 15.8% | viability, T/C [11]: 12% | viability, T/C [12]: 9.62% | viability, T/C [13]: 24.3% | viability, T/C [14]: 29.3% | viability, T/C [15]: 18% | viability, T/C [16]: 12.4% | viability, T/C [17]: 11.9% | viability, T/C [18]: 8.87% | viability, T/C [19]: 21.8% | viability, T/C [20]: 18.1% | viability, T/C [21]: 12.3% | viability, T/C [22]: 11.1% | viability, T/C [23]: 13.1% | viability, T/C [24]: 9.29% | viability, T/C [25]: 10.1% | viability, T/C [26]: 8.55% | viability, T/C [27]: 9.85% | viability, T/C [28]: 8.98% | viability, T/C [29]: 10.3% | viability, T/C [30]: 8.29% | viability, T/C [31]: 11.6% | viability, T/C [32]: 9.45% | viability, T/C [33]: 11.2% | viability, T/C [34]: 8.53% | viability, T/C [35]: 10% | viability, T/C [36]: 9.32%

CCc1c2c(nc3ccc(O)cc13)-c1cc3c(c(=O)n1C2)COC(=O)[C@]3(O)CC + Cc1cnc(CNC(=O)c2c(=O)c3ccc(N4CCCN(C)CC4)nc3n3c2sc2ccccc23)cn1
IC50 (second compound 0.0316 µM): < 0.999 nM | IC50 (second compound 0.1 µM): < 0.999 nM | IC50 (second compound 0.316 µM): < 0.999 nM | IC50 (second compound 1 µM): < 0.999 nM | IC50 (second compound 3.16 µM): < 0.999 nM | IC50 (second compound 10 µM): < 0.999 nM | viability, T/C [1]: 31.5% | viability, T/C [2]: 13.3% | viability, T/C [3]: 9.95% | viability, T/C [4]: 8.54% | viability, T/C [5]: 4.31% | viability, T/C [6]: 1.99% | viability, T/C [7]: 17.2% | viability, T/C [8]: 8.8% | viability, T/C [9]: 9.75% | viability, T/C [10]: 7.73% | viability, T/C [11]: 4.92% | viability, T/C [12]: 2.18% | viability, T/C [13]: 14.4% | viability, T/C [14]: 10.9% | viability, T/C [15]: 8.79% | viability, T/C [16]: 6.94% | viability, T/C [17]: 6.74% | viability, T/C [18]: 2.05% | viability, T/C [19]: 10.6% | viability, T/C [20]: 10.6% | viability, T/C [21]: 9.03% | viability, T/C [22]: 9.75% | viability, T/C [23]: 5.59% | viability, T/C [24]: 1.55% | viability, T/C [25]: 11.3% | viability, T/C [26]: 7% | viability, T/C [27]: 6.92% | viability, T/C [28]: 5.6% | viability, T/C [29]: 3.86% | viability, T/C [30]: 0.83% | viability, T/C [31]: 7.27% | viability, T/C [32]: 8.08% | viability, T/C [33]: 7.06% | viability, T/C [34]: 6.04% | viability, T/C [35]: 3.78% | viability, T/C [36]: 0.4%

COc1cc(C2c3cc4c(cc3C(OC3OC5COC(C)OC5C(O)C3O)C3COC(=O)C23)OCO4)cc(OC)c1O (stereo unspecified) + Cc1cnc(CNC(=O)c2c(=O)c3ccc(N4CCCN(C)CC4)nc3n3c2sc2ccccc23)cn1
IC50 (second compound 0.0316 µM): 56.4 nM | IC50 (second compound 0.1 µM): < 31.6 nM | IC50 (second compound 0.316 µM): < 31.6 nM | IC50 (second compound 1 µM): < 31.6 nM | IC50 (second compound 3.16 µM): < 31.6 nM | IC50 (second compound 10 µM): < 31.6 nM | viability, T/C [4]: 67.3% | viability, T/C (second compound 0.0316 µM, first compound 0.1 µM): 32.8% | viability, T/C [6]: 16.3% | viability, T/C (second compound 0.0316 µM, first compound 1 µM): 13.5% | viability, T/C (second compound 0.0316 µM, first compound 3.16 µM): 8.96% | viability, T/C (second compound 0.0316 µM, first compound 10 µM): 4.09% | viability, T/C [10]: 37.6% | viability, T/C (second compound 0.1 µM, first compound 0.1 µM): 27.9% | viability, T/C [12]: 16% | viability, T/C (second compound 0.1 µM, first compound 1 µM): 10.6% | viability, T/C (second compound 0.1 µM, first compound 3.16 µM): 8.64% | viability, T/C (second compound 0.1 µM, first compound 10 µM): 5.71% | viability, T/C [16]: 25.1% | viability, T/C (second compound 0.316 µM, first compound 0.1 µM): 19% | viability, T/C [18]: 14.4% | viability, T/C (second compound 0.316 µM, first compound 1 µM): 8.91% | viability, T/C (second compound 0.316 µM, first compound 3.16 µM): 8.97% | viability, T/C (second compound 0.316 µM, first compound 10 µM): 5.79% | viability, T/C [22]: 12.8% | viability, T/C (second compound 1 µM, first compound 0.1 µM): 13.7% | viability, T/C [24]: 13.6% | viability, T/C (second compound 1 µM, first compound 1 µM): 11% | viability, T/C (second compound 1 µM, first compound 3.16 µM): 7.71% | viability, T/C (second compound 1 µM, first compound 10 µM): 6.49% | viability, T/C [28]: 9.53% | viability, T/C (second compound 3.16 µM, first compound 0.1 µM): 11.8% | viability, T/C [30]: 9.99% | viability, T/C (second compound 3.16 µM, first compound 1 µM): 9.79% | viability, T/C (second compound 3.16 µM, first compound 3.16 µM): 9.02% | viability, T/C (second compound 3.16 µM, first compound 10 µM): 5.67% | viability, T/C [34]: 9.66% | viability, T/C (second compound 10 µM, first compound 0.1 µM): 11% | viability, T/C [36]: 10.7% | viability, T/C (second compound 10 µM, first compound 1 µM): 9.61% | viability, T/C (second compound 10 µM, first compound 3.16 µM): 9.67% | viability, T/C (second compound 10 µM, first compound 10 µM): 6.31%

— PubChem BioAssay AID2060486 (Molecular Pharmacology Branch, DTP, NCI, 2025)
